According to US11026944B2, “Compositions and methods for treating insomnia” (Eisai R&D Management Co., Ltd., priority 2014, dated 2021):
Like-named read-outs stand apart in the source and are kept apart here.

Experiment: Crossover study of relative bioavailability of tablet versus capsule (005 Study): plasma PK
Format: in vivo, human
Settings: for Tmax / concentration at 8 h / AUC(0-t) / AUC(0-inf) / Cmax / half-life: human, plasma; for concentration at 8 h: plasma at 8 h, read-out: C8 Mean(SD); for AUC(0-inf): read-out: AUC(0-inf) Mean(SD); for Cmax: read-out: Cmax Mean(SD); for half-life: read-out: t1/2 Mean(SD) (converted)
Procedure: Single-center, open-label, randomized crossover study was conducted to evaluate, in healthy adult subjects, the bioavailability of single solid oral doses of compound A in tablet formulation relative to single oral doses of compound A in capsule formulation at 2.5, 10, and 25 mg. Another objective of the study was to evaluate the safety and tolerability of tablet formulations of compound A at 2.5, 10, and 25 mg in healthy adult subjects. Approximately 36 subjects were randomly assigned to one of three cohorts (approximately 12 subjects per cohort) and received both a single dose of compound A as a capsule formulation and a single dose of compound A as a tablet formulation, in random sequence, in a 1:1 ratio. The doses were 2.5 mg, 10 mg, and 25 mg.
The study had two phases: Prerandomization and Randomization. The Prerandomization Phase lasted for up to 21 days and included a Screening Period and Baseline Period A, during which eligibility was established and baseline assessments before dosing of the first formulation occurred. The Randomization Phase consisted of two Treatment Periods (A and B), separated by Baseline Period B. On the first day of Treatment Period A, subjects received a single oral dose of the first formulation. After the first formulation dose, pharmacokinetic (PK) and safety assessments were obtained throughout Treatment Period A, and subjects completed a 20-day washout. Before dosing of the second formulation, subjects completed Baseline Period B assessments. Subjects then proceeded to Treatment Period B and received a single oral dose of the second formulation. Pharmacokinetic and safety assessments were obtained throughout Treatment Period B.
Blood samples for the determination of plasma concentrations of compound A were collected at the following times: Treatment Period A (Day 1 to Day 15): before and after dosing at 0.5 (30 minutes), 1, 1.5, 2, 3, 4, 5, 6, 8, 12, 24, 48, 72, 120, 168, 240, and 336 hours; Treatment Period B (Day 22 to Day 36): before and after dosing at 0.5 (30 minutes), 1, 1.5, 2, 3, 4, 5, 6, 8, 12, 24, 48, 72, 120, 168, 240, and 336 hours.
Plasma concentrations of compound A were measured using a validated liquid chromatography-tandem mass spectrometry (LC-MS/MS) assay.
Noncompartmental methods were used to calculate the following plasma PK parameters for compound A: area under the plasma concentration-time curve from time zero to 8 hours after dosing (AUC(0-8)), area under the plasma concentration-time curve from time zero to 72 hours after dosing (AUC(0-72)), area under the plasma concentration-time curve from time zero to time of the last quantifiable concentration (AUC(0-t)), area under the plasma concentration-time curve from time zero extrapolated to time infinity (AUC(0-inf)), maximum observed plasma drug concentration (Cmax), terminal elimination half-life (t1/2), absorption lag time (tlag), and time to reach the maximum (peak) plasma concentration after drug administration (tmax). The primary PK parameters were AUC(0-inf) and Cmax. The individual PK parameters of compound A were presented in the data listings by formulation (tablet or capsule) and dose (2.5, 10, or 25 mg). The PK parameters except tmax and tlag were summarized by formulation and dose using descriptive statistics: number of subjects, mean, SD, coefficient of variation, geometric mean, median, minimum, and maximum. The parameters tmax and tlag were summarized by formulation and dose using the following descriptive statistics: median, minimum, maximum, and the 90% confidence interval (CI) of the median point estimate. The natural log (In)-transformed PK parameters for compound A (AUC(0-inf), Cmax, AUC(0-8), AUC(0-72), and AUC(0-t)) were compared separately by dose with a mixed-effects model with sequence, treatment period, and formulation as fixed effects and subjects nested within sequence as a random effect. […]

[1] = across all dose levels (2.5, 10, 25 mg)
[2] = po, 2.5 mg, single oral 2.5 mg Capsule, healthy adults
[3] = po, 2.5 mg, single oral 2.5 mg Tablet, healthy adults
[4] = po, 10 mg, single oral 10 mg Capsule, healthy adults
[5] = po, 10 mg, single oral 10 mg Tablet, healthy adults
[6] = po, 25 mg, single oral 25 mg Capsule, healthy adults
[7] = po, 25 mg, single oral 25 mg Tablet, healthy adults

With `Cc1ncc(OC[C@@]2(c3cccc(F)c3)C[C@H]2C(=O)Nc2ccc(F)cn2)c(C)n1` [Compound A, (1R,2 S)-2-(((2,4-dimethylpyrimidin-5-yl)oxy)methyl)-2-(3-fluorophenyl)-N-(5-fluoropyridin-2-yl) cyclopropanecarboxamide] the “Differences between formulations (tablet vs capsule) in AUC(0-8), AUC(0-72), AUC(0-t), AUC(0-inf)” value [1] was “less than 13%”, the “Differences between tablet and capsule formulations in Cmax” value [1] was “less than 16%” and the absorption lag (either formulation, any dose level) was “no observed absorption lag”. For the same compound, the Tmax (oral, tablet and capsule, across all dose levels, read-out: median tmax) was 1 to 1.5 h, the concentration at 8 h (po, 2.5 mg, single oral 2.5 mg Capsule) was 1.84 ng/mL and the concentration at 8 h (po, 2.5 mg, single oral 2.5 mg Tablet) was 1.75 ng/mL. For the same compound, the AUC(0-t) (po, 2.5 mg, single oral 2.5 mg Capsule, healthy adults, read-out: AUC(0-8) Mean(SD)) was 45.5 ng·h/mL, the AUC(0-t) (po, 2.5 mg, single oral 2.5 mg Capsule, healthy adults, read-out: AUC(0-72) Mean(SD)) was 85.1 ng·h/mL and the AUC(0-inf) [2] was 103 ng·h/mL. It also gave an AUC(0-t) (po, 2.5 mg, single oral 2.5 mg Capsule, healthy adults, read-out: AUC(0-t) Mean(SD)) of 94.9 ng·h/mL, a Cmax [2] of 15.9 ng/mL and a half-life [2] of 36.8 h. The Tmax (po, 2.5 mg, single oral 2.5 mg Capsule, healthy adults, read-out: tmax (median)) was 1 h, the AUC(0-t) (po, 2.5 mg, single oral 2.5 mg Tablet, healthy adults, read-out: AUC(0-8) Mean(SD)) was 47.1 ng·h/mL and the AUC(0-t) (po, 2.5 mg, single oral 2.5 mg Tablet, healthy adults, read-out: AUC(0-72) Mean(SD)) was 84.3 ng·h/mL. It also gave an AUC(0-inf) [3] of 101 ng·h/mL, an AUC(0-t) (po, 2.5 mg, single oral 2.5 mg Tablet, healthy adults, read-out: AUC(0-t) Mean(SD)) of 93.2 ng·h/mL and a Cmax [3] of 18 ng/mL. For the same compound, the half-life [3] was 35.1 h, the Tmax (po, 2.5 mg, single oral 2.5 mg Tablet, healthy adults, read-out: tmax (median)) was 1 h and the concentration at 8 h (po, 10 mg, single oral 10 mg Capsule) was 8.9 ng/mL. It also gave a concentration at 8 h (po, 10 mg, single oral 10 mg Tablet) of 7.44 ng/mL, an AUC(0-t) (po, 10 mg, single oral 10 mg Capsule, healthy adults, read-out: AUC(0-8) Mean(SD)) of 164 ng·h/mL and an AUC(0-t) (po, 10 mg, single oral 10 mg Capsule, healthy adults, read-out: AUC(0-72) Mean(SD)) of 372 ng·h/mL. It also gave an AUC(0-inf) [4] of 531 ng·h/mL, an AUC(0-t) (po, 10 mg, single oral 10 mg Capsule, healthy adults, read-out: AUC(0-t) Mean(SD)) of 511 ng·h/mL and a Cmax [4] of 49 ng/mL. The half-life [4] was 57 h, the Tmax (po, 10 mg, single oral 10 mg Capsule, healthy adults, read-out: tmax (median)) was 1.5 h and the AUC(0-t) (po, 10 mg, single oral 10 mg Tablet, healthy adults, read-out: AUC(0-8) Mean(SD)) was 178 ng·h/mL. The AUC(0-t) (po, 10 mg, single oral 10 mg Tablet, healthy adults, read-out: AUC(0-72) Mean(SD)) was 341 ng·h/mL, the AUC(0-inf) [5] was 472 ng·h/mL and the AUC(0-t) (po, 10 mg, single oral 10 mg Tablet, healthy adults, read-out: AUC(0-t) Mean(SD)) was 455 ng·h/mL. The Cmax [5] was 58.1 ng/mL, the half-life [5] was 59.5 h and the Tmax (po, 10 mg, single oral 10 mg Tablet, healthy adults, read-out: tmax (median)) was 1 h. The concentration at 8 h (po, 25 mg, single oral 25 mg Capsule) was 19.9 ng/mL, the concentration at 8 h (po, 25 mg, single oral 25 mg Tablet) was 17.6 ng/mL and the AUC(0-t) (po, 25 mg, single oral 25 mg Capsule, healthy adults, read-out: AUC(0-8) Mean(SD)) was 358 ng·h/mL. It also gave an AUC(0-t) (po, 25 mg, single oral 25 mg Capsule, healthy adults, read-out: AUC(0-72) Mean(SD)) of 803 ng·h/mL, an AUC(0-inf) [6] of 1110 ng·h/mL and an AUC(0-t) (po, 25 mg, single oral 25 mg Capsule, healthy adults, read-out: AUC(0-t) Mean(SD)) of 1080 ng·h/mL. It also gave a Cmax [6] of 105 ng/mL, a half-life [6] of 57.4 h and a Tmax (po, 25 mg, single oral 25 mg Capsule, healthy adults, read-out: tmax (median)) of 1.5 h. The AUC(0-t) (po, 25 mg, single oral 25 mg Tablet, healthy adults, read-out: AUC(0-8) Mean(SD)) was 386 ng·h/mL, the AUC(0-t) (po, 25 mg, single oral 25 mg Tablet, healthy adults, read-out: AUC(0-72) Mean(SD)) was 795 ng·h/mL and the AUC(0-inf) [7] was 1100 ng·h/mL. For the same compound, the AUC(0-t) (po, 25 mg, single oral 25 mg Tablet, healthy adults, read-out: AUC(0-t) Mean(SD)) was 1070 ng·h/mL, the Cmax [7] was 120 ng/mL and the half-life [7] was 57.6 h. It also gave a Tmax (po, 25 mg, single oral 25 mg Tablet, healthy adults, read-out: tmax (median)) of 1 h.
